Here are results for 2 compounds from patent publication US11730178B2, “Extraction method” (THE PRODUCT MAKERS (AUSTRALIA) PTY LTD, priority 2012, dated 2023).

Assay [1] addresses yeast (Saccharomyces cerevisiae) α-glucosidase. As to the kind of experiment: α-Glucosidase inhibition (hydrolysis of 4-methylumbelliferyl-α-D-glucopyranoside, fluorescence). In kind it is biochemical. The note with it: pH 5.5, 20 minutes at 37° C. The protocol:
As known in the art, α-glucosidase inhibitory activity can be measured as the ability of test samples to prevent the hydrolysis of 4-methylumbelliferyl-α-D-glucopyranosidase by yeast (Saccharomyces cerevisiae) α-glucosidase using known techniques. As will be understood by the skilled person, acarbose can be included in the assay as a positive control.
α-Glucosidase inhibitory activity is measured as the ability of test samples to prevent the hydrolysis of 4-methylumbelliferyl-α-D-glucopyranosidase by yeast (Saccharomyces cerevisiae) α-glucosidase.
Each sample (0.5 mL) was weighed and freeze-dried to determine its % dry matter. The samples were then resuspended in either dimethyl sulfoxide (DMSO) or DMSO:water (1:1) to a concentration of 15 mg/mL, after which the samples were serially diluted.
The substrate, 4-methylumbelliferyl-α-D-glucopyranoside, and enzyme, yeast α-glucosidase, were prepared in the assay buffer, sodium acetate buffer (pH 5.5). The substrate (final concentration 83 μM, 45 μL) was added to 96-well plates containing 45 μL enzyme (final concentration 1.7 mU/mL) and 10 μL of sample. […] The reaction was stopped by the addition of 100 mM sodium glycine buffer (100 μL, pH 10.6), the plate was shaken for a further 30 seconds, and the fluorescence intensity was measured at λex 355 nm and λem 460 nm. […]

The subject of assay [2] is PEG2 production from 3T3 cells. The assay is described as follows: PEG2 (prostaglandin E2) inhibition in 3T3 cells stimulated with calcium ionophore, EIA kit. It counts as cell-based. To be noted: Mus musculus, NIH3T3, at 0.488 μg/mL, read-out: highest PEG2 inhibition observed. The source says: An extract according to the invention can also be tested for anti-inflammatory activity. By way of a non-limiting example, the extracts may be tested for prostaglandin E2 (PGE2) activity. As known in the art, PGE2 inhibitory activity can be measured by the ability of test samples to inhibit PGE2 production in 3T3 cells when stimulated with calcium ionophore. As understood in the art, aspirin and ibuprofen may be included in the assay as a positive control. The in vitro production of PEG2 from 3T3 cells was measured using the Cayman Chemical Prostaglandin E2 monoclonal EIA (Enzyme Immuno Assay) kit. The cells were exposed to samples 3 and 6 and stimulated with calcium ionophore. The cell supernatants were then assayed for PEG2 production. The cell cytotoxicity of the samples was tested against 3T3 cells to confirm that the observed PEG2 inhibition was not due to cell cytotoxicity. Aspirin and ibuprofen were used as positive controls.

On to fucoidan, for which the “α-glucosidase inhibitory activity IC50” value in assay [1] came to 0.17 µg/mL.

Regarding `CC(C)Cc1ccc(C(C)C(=O)O)cc1` (centres unmarked) [ibuprofen], in assay [2], the inhibition at 0.488 µg/mL came to 42.1%.
